# Reference: patent US10874631B2, “Altertoxin II as a selective inhibitor of Ewing family of tumor cells” (priority 2016, dated 2020)
# What was measured:
# [1] = system: Rh30 rhabdomyosarcoma cells; experiment: γH2AX high-content imaging; type: cell-based
# Procedure: FIG. 7A-7B. Altertoxin II (ATXII) selectively induces γH2AX foci in A673 Ewing sarcoma cells. (A) A673 cells were treated for 24 h with 100 nM altertoxin II and serine 139 phosphorylation of γH2AX evaluated by indirect immunofluorescence techniques. (B) High-content imaging and image analysis were used to construct concentration-response curves for nuclear γH2AX intensity in A673 and Rh30 rhabdomyosarcoma cells after treatment with altertoxin II for 6 h.
# Studies were conducted to test whether altertoxin II initiates DNA damage in Ewing sarcoma cells because of the well-known sensitivity of these cells to DNA damage and prior reports of altertoxin II-induced DNA damage in other mammalian cells (Fleck, S. C. et al., Toxicol Lett, 214, 27-32, 2012). […] Consistent with these measures of DNA damage altertoxin II.
# [2] = system: SK-ES-1 Ewing sarcoma cells; experiment: DNA damage response immunoblot (Chk1); type: cell-based; details: 100 nM and 1 μM, 24 h
# Procedure: (§1) FIG. 9A-9B. Altertoxin II causes phosphorylation of CHK1 and 2 and p53 in Ewing sarcoma cells. Ewing sarcoma cells, A673, RD-ES, SK-ES-1, or rhabdomyosarcoma A204 cells were treated with altertoxin II at the concentrations indicated for 6 h (A) or 24 h (B) and whole-cell lysates prepared and proteins separated by SDS-PAGE. These samples were analyzed by immunoblotting for total and phosphorylated Chk1 and 2 and p53 (A).
# (§2) Downstream activation of DNA damage response proteins by altertoxin II was subsequently evaluated.
# [3] = system: A204 rhabdomyosarcoma cells; experiment: DNA damage response immunoblot (Chk1); type: cell-based; details: concentrations up to 1 μM
# Procedure: as §1, §2
# ES-4 = experiment: alamar blue assay, proliferation; type: cell-based; details: ES-4, Ewing Sarcoma
# Procedure: (§3) FIG. 3A-3B. (A) The effects of altertoxin II were evaluated using the SRB assay in 6 Ewing sarcoma cell lines as compared to 4 other pediatric solid tumor cells lines. n≥3 independent experiments. (B) The effects of altertoxin II were evaluated by the Houghton laboratory using the alamar blue assay in an additional 6 Ewing sarcoma cell lines and potency compared to the activities in 5 rhabdomyosarcoma cell lines. n=3 independent experiments.
# (§4) The effects of altertoxin II were studied in a larger panel of cell lines and the GI50, the concentration that causes 50% inhibition of cell growth, and the TGI, the concentration that caused total growth inhibition, were determined using the sulforhodamine b (SRB assay). The mean GI50 values shown graphically in FIG. 3A. The IC50, the concentration that causes 50% inhibition of cell proliferation, values were determined in a second panel of Ewing sarcoma and rhabdomyosarcoma cell lines using the altar blue assay and these values are presented in Table 2 and the mean in […].
# Rh28 = experiment: alamar blue assay, proliferation; type: cell-based; details: Rh28, Rhabdomyosarcoma
# Procedure: as §3, §4
# TC-71 = experiment: alamar blue assay, proliferation; type: cell-based; details: TC-71, Ewing Sarcoma
# Procedure: as §3, §4
# Rh5 = experiment: alamar blue assay, proliferation; type: cell-based; details: Rh5, Rhabdomyosarcoma
# Procedure: as §3, §4
# ES-2 = experiment: alamar blue assay, proliferation; type: cell-based; details: Homo sapiens, ES-2, Ewing Sarcoma, N = 3-6
# Procedure: as §3, §4
# ES-7 = experiment: alamar blue assay, proliferation; type: cell-based; details: Homo sapiens, ES7, ES-7, Ewing Sarcoma
# Procedure: as §3, §4
# Rh36 = experiment: alamar blue assay, proliferation; type: cell-based; details: Rh36, Rhabdomyosarcoma
# Procedure: as §3, §4
# Rh18 = experiment: alamar blue assay, proliferation; type: cell-based; details: Homo sapiens, Rh18, Rhabdomyosarcoma
# Procedure: as §3, §4
# Rh30 = experiment: alamar blue assay, proliferation; type: cell-based; details: Rh30, Rhabdomyosarcoma
# Procedure: as §3, §4
# EW-8 = experiment: alamar blue assay, proliferation; type: cell-based
# Procedure: as §3, §4
# ES-8 = experiment: alamar blue assay, proliferation; type: cell-based; details: Homo sapiens, ES8, ES-8, Ewing Sarcoma
# Procedure: as §3, §4
# Rh41 = experiment: alamar blue assay, proliferation; type: cell-based; details: Homo sapiens, Rh41, Rhabdomyosarcoma
# Procedure: as §3, §4
# A204 = experiment: SRB assay, growth inhibition; type: cell-based; details: A204, RMS
# Procedure: as §3, §4
# SK-N-BE2 = experiment: SRB assay, growth inhibition; type: cell-based
# Procedure: as §3, §4
# A673 = experiment: SRB assay, growth inhibition; type: cell-based; details: A673, EWS
# Procedure: as §3, §4
# RD-ES = experiment: SRB assay, growth inhibition; type: cell-based; details: EWS
# Procedure: as §3, §4
# SH-SY-5Y = experiment: SRB assay, growth inhibition; type: cell-based; details: NB
# Procedure: as §3, §4
# D283 = experiment: SRB assay, growth inhibition; type: cell-based; details: D283, Med
# Procedure: as §3, §4
# SK-ES-1 = experiment: SRB assay, growth inhibition; type: cell-based
# Procedure: as §3, §4
# [4] = system: A673 Ewing sarcoma murine xenograft; experiment: A673 xenograft antitumor efficacy; type: in vivo, Mice
# Procedure: FIG. 11. Antitumor efficacy of ATXII against A673 xenograft model. Mice were injected i.p. with 20 mg/kg. ATXII on days 1, 3, 5, 8, 10 and 12, or 40 mg/kg on days 1, 3, and 5.
# Studies were conducted to evaluate the in vivo efficacy of altertoxin II in an A673 Ewing sarcoma murine xenograft model (FIG. 11). Mice bearing A673 xenograft tumors were treated with 20 mg/kg altertoxin II on days 1, 3, 5, 8 and 10, or with 40 mg/kg altertoxin II on days 1, 3 and 5.
structure (smiles),measurement,setting,value
O=C1CC[C@]2(O)c3c(ccc(O)c31)-c1ccc(O)c3c1[C@H]2[C@H]1O[C@H]1C3=O [altertoxin II],γH2AX foci,"[1]; 10 μM, 24 h exposure",did initiate γH2AX foci
same,γH2AX foci,"[1]; concentrations up to 1 μM, 6 or 24 h",no γH2AX foci were detected
same,Chk1 phosphorylation,[2],Chk1 phosphorylation was also observed
same,Chk1 phosphorylation,[3],Chk1 phosphorylation was not observed
same,IC50,ES-4,20 ± 2 nM
same,IC50,Rh28,790 ± 90 nM
same,IC50,TC-71,4.6 ± 0.5 nM
same,IC50,Rh5,1050 ± 230 nM
same,IC50,ES-2,23 ± 4 nM
same,IC50,ES-7,3 ± 1 nM
same,IC50,Rh36,1030 ± 210 nM
same,IC50,Rh18,990 ± 120 nM
same,IC50,Rh30,750 ± 60 nM
same,IC50,"EW-8; EW8, EW-8, Ewing Sarcoma, alamar blue",6.5 ± 0.3 nM
same,sensitivity of EW-8 cell line,EW-8; EW-8 is resistant to PARP1 inhibitors,highly sensitive
same,IC50,ES-8,7 ± 1 nM
same,IC50,Rh41,1130 ± 300 nM
same,TGI,A204,1500 nM
same,GI50,A204; Homo sapiens,960 nM
same,GI50,"SK-N-BE2; Homo sapiens, SKNBE2, SK-N-BE2, NB",1000 nM
same,TGI,"SK-N-BE2; SK-N-BE2, NB",2000 nM
same,TGI,A673,139 nM
same,GI50,A673; Homo sapiens,28 nM
same,GI50,RD-ES; n ≥ 3,14 nM
same,TGI,RD-ES; total growth inhibitory concentration,60 nM
same,GI50,"SH-SY-5Y; Homo sapiens, SH-SY5Y",560 nM
same,TGI,SH-SY-5Y,920 nM
same,GI50,D283,940 nM
same,TGI,D283,1700 nM
same,GI50,"SK-ES-1; Homo sapiens, SK-ES1, SK-ES-1, EWS",35 nM
same,TGI,"SK-ES-1; SK-ES-1, EWS",151 nM
same,tumor growth,"[4]; 20 mg/kg i.p. days 1, 3, 5, 8 and 10",trend of modest tumor growth inhibition
same,tumor volume vs control on day 14,"[4]; 20 mg/kg, day 14",no statistically significant difference
same,tumor growth,"[4]; 40 mg/kg i.p. days 1, 3 and 5, 14-day trial",significant inhibition of tumor growth
same,tumor size vs control on day 14,"[4]; 40 mg/kg, day 14, p=0.0001",significantly smaller than control tumors
same,therapeutic window,[4]; A673 xenograft,acceptable therapeutic window
